Test results from patent US20040247703A1, “Composition for inhibiting glutamate-mediated neurotoxicity comprising ginsenoside Rg3 or ginsenoside Rh2” (priority 2002, published 2004).

How the values were obtained:
cultured cortical neuron = conditions: literature (Kim, Y. C. et al. 1998); cited from earlier work
NMDA receptor [1] = experiment: NMDA receptor-mediated Ca2+ influx by Ca2+-imaging technique (fura-2/AM) in cultured hippocampus nerve cells; type: cell-based, mouse; conditions: for % inhibition of NMDA receptor-mediated [Ca^2+]i infulx: cultured mouse hippocampus nerve cell; for NMDA receptor-mediated Ca^2+ influx inhibition, comparison of isomer forms, in words: Table 1 comparison of 20(S)-form with mixture of S-form and R-form; for inhibition effect for NMDA receptor activity, screening of pure 20(S) compounds, in words: 9 kinds of 20(S) compounds, FIG. 5
Experimental: (§1) Hippocampus nerve tissues were separated from an 18-day-old fetus to 1-day-old newborn white mouse using a dissection microscope. The tissues were treated with Leibovitz L-15 medium (Gibco, Grand Island, N.Y.) including 0.05% papain at 37° C. for 20 minutes. Then, the solution was washed with Ca^2+ or Mg^2+ free Hank's Balanced Salt Solution (Gibco, Grand Island, N.Y.) several times, and the single hippocampus nerve cell was separated mechanically by adjusting the pore size of the Pasteur pipette. The cell was cultured on a cover slip that was treated with poly-L-lysine in a concentration of 1.5×10^5 cell/ml.
The cell was cultured in a culturing solution of Neurobasla/B27 (Gibco, Grand Island, N.Y.) to which 0.5 mM L-glutamine, 25 μM glutamate, 25 μM 2-mercaptoethanol, 100 U/ml penicillin and 100 μg/ml streptomycin were added. Half of the medium was replaced twice a week with a medium having no added glutamate. Cells that were cultured for 7 to 15 days were used in the experiment.
Fura-2/AM (Molecular probes: Eugene, Oreg.) of the acetoxymethyl-ester form was used as a fluorescent Ca^2+ label. The hippocampus nerve cell was primarily incubated with 5 μM fura-2/AM and 0.001% Pluronic F-127 in HEPES buffer solution (unit mM: 150 NaCl, 5 KCl, 1 MgCl2,2 CaCl2,10 HEPES, 10 glucose, pH 7.4) at room temperature for 40 to 60 minutes and then washed with the HEPES buffer solution several times. After stabilizing the cell for 10 minutes, the change in intracellular Ca ion concentration was determined using an inverted microscope.
Specifically, the cell was exposed selectively to the excitation wavelengths (340 nm and 380 nm) from a xenon arc lamp by a computer-controlled filter wheel (Sutter Instruments, CA). Data was obtained every 2 seconds and a shutter was placed at the light-exposed portion so as to prevent any photo-toxicity on the cell. Emitter fluorescence light, which passed through a 515 nm long-pass filter, reached a cooling CCD camera. The ratios of intensity (340/380 nm) were converted to intracellular free Ca^2+ concentration ([Ca^2+]i) by digital fluorescence analyzer. Analysis of all image data was performed using Universal Imaging software (West Chester, Pa.).
Method for screening NMDA receptor inhibitor via NMDA receptor activity in a hippocampus nerve cell was performed by a Ca^2+-imaging technique using a Ca-dependent dye, fura-2/AM, as explained in Example 2.
Therefore, the system was used in the NMDA receptor inhibitor screening of ginseng components.
As stated above, the experiments of FIGS. 2A to 2C were to determine Ca^2+ influx caused by NMDA activity, when NMDA was administered to the cultured hippocampus nerve cell (5˜10 seconds), by using the Ca^2+-imaging technique. […]

[2] = tested on: white mouse hippocampus nerve cells; experiment: MTT assay, survival of nerve cells against cytotoxicity by NMDA; type: cell-based; conditions: pretreated 1 minute, NMDA 10 minutes, MTT after 24 hours; 100 μg/ml GTS, 10 μM Rg3; FIG. 3
Experimental: 3-(4,5-dimethylthiazole-2-yl)-2,5-diphenyltetrazolium bromide (MTT) assay was carried out to determine the survival rate of cells against cytotoxicity by NMDA in nerve cells. Primarily cultured white mouse hippocampus nerve cells were cultured in a 24-well plate, to which a Neurobasal/B27 (Gibco, Grand Island N.Y.) medium including 0.5 mM L-glutamine, 25 μM glutamate, 25 μM 2-mercaptoethanol, 100 U/ml penicillin and 100 μg/ml streptomycin was added for 6-14 days. The cells were pretreated with 100 μg/ml GTS and 10 μM Rg3 using a Mg^2+ free HEPES buffered solution including 1 μM glycine for 1 minute and then treated with NMDA for 10 minutes. Thereafter, the medium was exchanged with the normal culture medium. Twenty-four hours after such treatment, the cells were treated directly with a 50 μl MTT solution in phosphate buffered saline (PBS) (1 mg/ml). Four hours after MTT treatment, the supernatant was removed, and the produced formazan was resolved in 100 μl dimethylsulfoxide (DMSO). Optical density at 560 nm was read using an automated spectrophotometric plate reader.

NMDA receptor [3] = experiment: NMDA receptor-mediated membrane current by whole-cell patch-clamp in hippocampus nerve cells; type: cell-based, mouse; conditions: 10 μM; FIG. 2D
Experimental: as §1
The cell was cultured in a culturing solution of Neurobasla/B27 (Gibco, Grand Island, N.Y.) to which 0.5 mM L-glutamine, 25 μM glutamate, 25 μM 2-mercaptoethanol, 100 U/ml penicillin and 100 μg/ml streptomycin were added. Half of the medium was replaced twice a week with a medium having no added glutamate. […]
Whole-cell voltage-clamp recordation was carried out using a perforated patch-clamp method. […] After 10 minutes, the membrane current was determined. […]
As a solution that allows only the monovalent ion to pass the membrane to produce an electric current, Nystatin stock solution of 25 mg/ml was diluted into a concentration of 250 μg/ml and added to the internal solution. […] The membrane voltage was recorded using an EPC-9 amplifier and Pulse/Pulsefit software (HEKA, Germany). […]

hippocampus nerve cells = conditions: literature (Lim, J. H. et al. 1997); cited from earlier work

Row | Compound | glutamate-induced neurotoxicity in cultured cortical neuron, in words (cultured cortical neuron) | % inhibition of NMDA receptor-mediated [Ca^2+]i infulx (NMDA receptor [1]; 1 μM) [%] | NMDA receptor-mediated Ca^2+ influx inhibition, comparison of isomer forms, in words (NMDA receptor [1]) | cell viability against neurotoxicity caused by NMDA, in words [2] | inhibition effect for NMDA receptor activity, screening of pure 20(S) compounds, in words (NMDA receptor [1]) | other results
1 | CC(C)=CCC[C@](C)(O)[C@H]1CC[C@]2(C)[C@@H]1[C@H](O)C[C@@H]1[C@@]3(C)CC[C@H](O[C@@H]4O[C@H](CO)[C@@H](O)[C@H](O)[C@H]4O[C@@H]4O[C@H](CO)[C@@H](O)[C@H](O)[C@H]4O)C(C)(C)[C@@H]3CC[C@]12C [ginsenoside Rg3] | inhibited | 31.2 ± 2.5 | equivalent efficacy regardless of an S-form or R-form isomer and their mixture | effectively increase cell viability | – | NMDA receptor inhibition efficiency, screening of 10 ginsenosides, in words (NMDA receptor [1]; 10 μM, ginsenosides including isomers of C-20 position, FIGS. 2A and 2B): superior to those of other ginsenosides; IC50 (NMDA receptor [1]; Ca2+ influx on NMDA in cultured hippocampus nerve cell, read-out: IC50 of NMDA receptor inhibition (concentration dependence, FIG. 2C)): 3.8 µM; NMDA receptor-mediated inward current, in words (NMDA receptor [3]): inhibits the inward current
2 | CC(C)=CCC[C@](C)(O[C@@H]1O[C@H](CO[C@@H]2O[C@H](CO)[C@@H](O)[C@H](O)[C@H]2O)[C@@H](O)[C@H](O)[C@H]1O)[C@H]1CC[C@]2(C)[C@@H]1[C@H](O)C[C@@H]1[C@@]3(C)CC[C@H](O[C@@H]4O[C@H](CO)[C@@H](O)[C@H](O)[C@H]4O[C@@H]4O[C@H](CO)[C@@H](O)[C@H](O)[C@H]4O)C(C)(C)[C@@H]3CC[C@]12C [ginsenoside Rb1, reference compound] | inhibited | – | – | – | – | death of hippocampus nerve cells during cerebral ischemia, in words (hippocampus nerve cells): inhibits death of hippocampus nerve cells
3 | CC(C)=CCC[C@](C)(O)[C@H]1CC[C@]2(C)[C@@H]1[C@H](O)C[C@@H]1[C@@]3(C)CC[C@H](O[C@@H]4O[C@H](CO)[C@@H](O)[C@H](O)[C@H]4O)C(C)(C)[C@@H]3CC[C@]12C [ginsenoside Rh2] | – | – | – | – | – | % inhibition of NMDA receptor-mediated [Ca^2+]i infulx (NMDA receptor [1]; 10 μM): 18.6 ± 2.7 %
4 | CC(C)=CCC[C@](C)(O)[C@H]1CC[C@]2(C)[C@@H]1[C@H](O)C[C@@H]1[C@@]3(C)CC[C@H](O[C@@H]4O[C@H](CO)[C@@H](O)[C@H](O)[C@H]4O[C@@H]4O[C@H](CO)[C@@H](O)[C@H](O)[C@H]4O)C(C)(C)[C@@H]3CC[C@]12C [20(S)-ginsenoside Rg3] | – | 30.4 ± 2.3 | – | – | most excellent inhibition effect | –
5 | N[C@H](CCCP(=O)(O)O)C(=O)O [D-APV, D(−)-2-amino-5-phosphono-pentanoic acid, reference compound] | – | – | – | effectively increase cell viability | – | Ca^2+ concentration ([Ca^2+]i) after NMDA application, in words (NMDA receptor [1]; FIG. 1, repeated NMDA applications): significantly decreased
6 | CC(C)=CCC[C@](C)(O)[C@H]1CC[C@]2(C)[C@@H]1[C@H](O)C[C@@H]1[C@@]3(C)CC[C@H](O[C@@H]4O[C@H](CO)[C@@H](O)[C@H](O)[C@H]4O)C(C)(C)[C@@H]3CC[C@]12C [20(S)-ginsenoside Rh2] | – | 47.1 ± 4.3 | superior effect to the mixture of S-form and R-form isomers | – | most excellent inhibition effect | –
